US9879050B2, “Substituted urea depsipeptide analogs as activators of the CLPP endopeptidase” (priority 2013, dated 2018)
Values after ≈ are worked out from the molar mass of the structure shown.

Key:
[1] = target: T1, Sa-ClpP (Staphylococcus aureus, UniProt Q2G036); assay: ClpP activation, EnzCheck Protease Assay with Bodipy-FL casein (second described method); assay type: biochemical, S. aureus; conditions: read-out: ClpP Activation EC50 (converted)
T1 construct: made in house; host or cells: E. coli BL21 (DE3)
T1 sequence (Q2G036 whole entry): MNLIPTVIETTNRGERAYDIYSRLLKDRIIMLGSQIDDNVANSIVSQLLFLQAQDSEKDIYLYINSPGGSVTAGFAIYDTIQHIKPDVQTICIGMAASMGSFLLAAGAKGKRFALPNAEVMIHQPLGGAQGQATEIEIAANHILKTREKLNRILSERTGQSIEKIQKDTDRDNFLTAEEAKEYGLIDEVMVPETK
Protocol: Alternatively, the assay was carried out using EnzCheck Protease Assay (Molecular Probes, Catalog #E6638). The assay was performed in black 384 well, flat bottom, low volume plates (Greiner Bio-One, Monroe, N.C., catalog #784076). 10 μL of Tris.HCl buffer, pH 8.0 with 0.01% Triton X-100 was pipetted into each well using a Well-Mate (Thermo Scientific, Waltham, Mass.). 0.4 μL test compounds or controls (2% DMSO v/v) were added to each well using a Biomek FX liquid handling robot (Beckman Coulter, Indianapolis Ind.). After addition of test compounds and controls, 10 μL of master mix containing 2 μM Sa-ClpP and 2 μM substrate (Bodipy-FL labeled casein) in Tris*HCl buffer, pH 8.0 with 0.01% (v/v) Triton X-100, was pipetted into each well. All assays were performed in triplicate, under linear velocity conditions. Increase in fluorescent signal following activation of Sa-ClpP by test compounds and controls was measured over time period of 30 mins using filters with excitation at 485±15 nm and emission at 520±25 nm on a PHERAstar FS Multilabel reader (BMG, Cary, N.C.). […] Data analysis was done by measuring rate of casein degradation over time (slopes). Computed degradation rates (slopes) were normalized to positive (ADEP4) or negative (DMSO) controls. Using nonlinear regression curve fitting EC50 values and % activation were determined using the equation “log [agonist]vs. Response-variable slope (four parameters)-symmetrical” in the program Prism 6 (GraphPad Software, La Jolla, Calif. USA, www.graphpad.com).

[2] = target: T1, Sa-ClpP; assay: ADEP displacement fluorescence polarization assay; assay type: binding, S. aureus; conditions: 1 μM Sa-ClpP, 50 nM FP probe ADEP 2591; read-out: ADEP Displacement IC50
Protocol: A fluorescence polarization (FP) assay was used to determine the activity of the disclosed compounds in displacing an ADEP analogue from ClpP. Briefly, the assay was performed in black 384 well, flat bottom, low volume plates (Greiner Bio-One, Monroe, N.C., catalog #784076). 20 μL of a pre-equilibrated (1 hr, room temperature) master mix (1 μM Sa-ClpP, 2% DMSO (v/v) and 50 nM FP probe in Tris*HCl, pH 8.0)) was pipetted into each well using a Well-Mate (Thermo Scientific, Waltham, Mass.). Sa-ClpP was prepared as described above for the ClpP activation assay. The FP probe was ADEP 2591 (structure shown above). The ADEP 2591 comprises a TAMRA fluorophore linked to a core based on modified ADEP 2378 via a short alkyl linker. Using pin transfer, approximately 0.4 μL (2% v/v DMSO) of each compound or control was added per well. After addition of compounds and controls, plates were allowed to incubate for an additional 120 minutes at room temperature. All assays were performed in triplicate. Polarization was monitored using an EnVision Multilabel reader (Perkin-Elmer, Waltham, Mass.) by exciting the FP probe at 530±25 nm, and monitoring fluorescence intensity of both parallel and perpendicular polarized light at 579±25 nm. Readout was in millipolarization units (mP).
Signal gain and G factors were determined in wells containing 20 μM ADEP 2378, which had been previously verified (data not shown) as containing completely unbound ADEP 2591. Data collected was normalized to values obtained from positive (20 μM ADEP 2378) or negative (DMSO) controls. Curves were fit with non-linear regression using the equation “log [inhibitor]vs. Response-variable slope (four parameters)-symmetrical” in the program Prism 6 (GraphPad Software, La Jolla, Calif. USA, www.graphpad.com). The structures for ADEP 2378 and ADEP 2591 are shown above. ADEP 2378 is (E)-N-((S)-1-(((2R,6S,8aS,14aS,20S,23aS)-2,6-dimethyl-5,8,14,19,23-pentaoxooctadecahydro-1H,5H,14H,19H-pyrido[2,1-i]dipyrrolo[2,1-c:2′,1′-1][1]oxa[4,7,10,13]tetraazacyclohexadecin-20-yl)amino)-1-oxo-3-phenylpropan-2-yl)pent-2-enamide. ADEP 2591 is 5-(3-(3-((6S,9S,11aS,17S,20aS)-6,10-dimethyl-5,8,11,16,20-pentaoxo-17-((S)-2-((E)-pent-2-enamido)-3-phenylpropanamido)hexadecahydro-1H,5H,16H-dipyrrolo[2,1-c:2′,1′-1][1]oxa[4,7,10,13]tetraazacyclohexadecin-9-yl)propyl)thioureido)-2-(6-(dimethylamino)-3-(dimethyliminio)-3H-xanthen-9-yl)benzoate.

[3] = Cytotoxicity assay, CellTiter-Glo cell viability; assay type: cell-based; conditions: African green monkey; Vero cells, 72 hours; read-out: Cytotoxicity IC50
Protocol: Cytotoxicity was determined by determining the effect of compounds on cell viability. Vero (kidney epithelial cells; ATCC CCL-81) monolayers were trypsinized and 5000 cells/well were seeded (10-15% confluency) into white-wall, flat bottom 96 well microwell plates (Corning) using enriched Dulbecco's Modified Eagle's Medium (Hyclone: DMEM/High Glucose) containing 10% Fetal Bovine Serum (ATCC-30-2020). Plates were incubated overnight at 37° C. in the presence of 5% CO2. Drug-free media was then replaced with media containing serial dilutions of test compound or DMSO carrier. After an additional 72 hours of incubation, viability was indirectly measured using the CellTiter-Glo® Luminescent Cell Viability (Promega) assay. Assay plates were read at peak emission wavelength of 560 nm using a EnVision® Multilabel Plate Reader (Perkin Elmer) or PHERAstar FS Multilabel reader (BMG, Cary, N.C.). […] USA, www.graphpad.com]. For each experiment, compounds were tested in duplicate. IC50 values presented are the range of two biologically independent experiments.

[4] = test system: S. aureus USA 300 ΔClpP; assay: Minimal inhibitory concentration, microbroth dilution; assay type: cell-based, Staphylococcus aureus; conditions: ClpP inactivated strain
Protocol: (§1) Minimal inhibitory concentrations (“MICs”) were determined using the microbroth dilution method according to Clinical Laboratory Standards Institute (CLSI; National, C.F. C. L. S., Methods for Dilution Antimicrobial Susceptibility Tests for Bacteria Grow aerobically-Seventh Edition: Approved Standard M7-A7, CLSI, Wayne, Pa., USA, 2008) and were read by visual inspection. Two fold serial dilutions of test compound in 100 μL of the appropriate broth media were first prepared in 96-well round bottom microtiter plates (Nalgene Nunc International, Rochester, N.Y., USA). An equivalent volume (100 μL) of bacterial broth inocula containing approximately 10^5 bacterial cfu/mL was added to each well to give final concentrations of test compound starting at 200 μM. The plates were then incubated aerobically at 37° C. All strains were incubated overnight. After incubations, in all cases the MIC was recorded as the lowest concentration of drug that prevented bacterial growth. The bacterial strains for which MIC was determined as described in Table 4.

[5] = test system: S. pneumoniae R6; assay: as above; assay type: cell-based; conditions: Streptococcus pneumoniae, R6, read-out: Minimal Inhibitory Concentration S. pneumoniae R6
Protocol: (§2) Minimal inhibitory concentrations (“MICs”) were determined using the microbroth dilution method according to Clinical Laboratory Standards Institute (CLSI; National, C.F. C. L. S., Methods for Dilution Antimicrobial Susceptibility Tests for Bacteria Grow aerobically-Seventh Edition: Approved Standard M7-A7, CLSI, Wayne, Pa., USA, 2008) and were read by visual inspection. Two fold serial dilutions of test compound in 100 μL of the appropriate broth media were first prepared in 96-well round bottom microtiter plates (Nalgene Nunc International, Rochester, N.Y., USA). […] The plates were then incubated aerobically at 37° C. All strains were incubated overnight. After incubations, in all cases the MIC was recorded as the lowest concentration of drug that prevented bacterial growth. The bacterial strains for which MIC was determined as described in Table 4.

[6] = test system: S. pyogenes ATCC 700294; assay: as above; assay type: cell-based; conditions: Streptococcus pyogenes, ATCC700294, read-out: Minimal Inhibitory Concentration S. pyogenes ATCC 700294
Protocol: as §2

[7] = test system: B. subtilis ATCC 23857; assay: as above; assay type: cell-based; conditions: Bacillus subtilis, ATCC23857, read-out: Minimal Inhibitory Concentration B. subtilis ATCC 23857
Protocol: as §1

[8] = test system: S. aureus ATCC 29213; assay: as above; assay type: cell-based; conditions: Staphylococcus aureus, ATCC29213, read-out: Minimal Inhibitory Concentration S. aureus ATCC 29213
Protocol: as §1

| SMILES | EC50 [1] [µM] | IC50 [2] [µM] | IC50 at 72 h [3] [µM] | Minimal Inhibitory Concentration S. aureus USA 300 ΔClpP [4] [µM] | MIC [5] [µM] | MIC [6] [µM] | MIC [7] [µM] | MIC [8] [µM] |
| --- | --- | --- | --- | --- | --- | --- | --- | --- |
| Cc1ccc(NC(=O)N[C@@H](Cc2ccccc2)C(=O)N[C@H]2COC(=O)C3C[C@H](C)CN3C(=O)[C@H](C)NC(=O)C3CCCCN3C(=O)C3CCCN3C2=O)cc1 (stereo partly drawn) [Compound 43, (S)—N-((2S,6S,8aS,14aS,20S,23aS)-2,6-Dimethyl-5,8,14,19,23-Pentaoxooctadecahydro-1H,5H,14H,19H-Pyrido[2,1-I]Dipyrrolo[2,1-C:2′,1′-L][1]Oxa[4,7,10,13]Tetraazacyclohexadecin-20-Yl)-3-Phenyl-2-(3-(P-Tolyl)Ureido)Propanamide] | 0.37 ± 0.03 | 6.57 ± 0.2 | 74.5 ± 8.8 | >200 | 0.2 (≈ 0.152 µg/mL) | 0.8 (≈ 0.606 µg/mL) | 0.4 (≈ 0.303 µg/mL) | 1.6 (≈ 1.21 µg/mL) |
| Cc1ccc(NC(=O)N[C@@H](Cc2cc(F)cc(F)c2)C(=O)N[C@H]2COC(=O)C3C[C@H](C)CN3C(=O)[C@H](C)NC(=O)C3CCCCN3C(=O)C3CCCN3C2=O)cc1C (stereo partly drawn) [Compound 48, (S)-3-(3,5-Difluorophenyl)-N-((2S,6S,8aS,14aS,20S,23aS)-2,6-Dimethyl-5,8,14,19,23-Pentaoxooctadecahydro-1H,5H,14H,19H-Pyrido[2,1-I]Dipyrrolo[2,1-C:2′,1′-L][1]Oxa[4,7,10,13]Tetraazacyclohexadecin-20-Yl)-2-(3-(3,4-Dimethylphenyl)Ureido)Propanamide] | 0.7 ± 0.03 | 8.1 ± 0.3 |  | 200 | 0.8 (≈ 0.646 µg/mL) | 3.1 (≈ 2.5 µg/mL) | 0.2 (≈ 0.162 µg/mL) | 1.6 (≈ 1.29 µg/mL) |
| Cc1ccc(NC(=O)N[C@@H](Cc2cc(F)cc(F)c2)C(=O)N[C@H]2COC(=O)C3C[C@@H](F)CN3C(=O)[C@H](C)NC(=O)C3CCCCN3C(=O)C3CCCN3C2=O)cc1 (stereo partly drawn) [Compound 51, (S)-3-(3,5-Difluorophenyl)-N-((2R,6S,8aS,14aS,20S,23aS)-2-Fluoro-6-Methyl-5,8,14,19,23-Pentaoxooctadecahydro-1H,5H,14H,19H-Pyrido[2,1-I]Dipyrrolo[2,1-C:2′,1′-L][1]Oxa[4,7,10,13]Tetraazacyclohexadecin-20-Yl)-2-(3-(P-Tolyl)Ureido)Propanamide] | 2.5 ± 0.2 | 9.71 ± 0.3 |  | >200 | 6.3 (≈ 5.03 µg/mL) | 12.5 (≈ 9.97 µg/mL) | > 200 | 12.5 (≈ 9.97 µg/mL) |
| Cc1ccc(NC(=O)N[C@@H](Cc2cc(F)cc(F)c2)C(=O)N[C@H]2COC(=O)C3C[C@H](F)CN3C(=O)[C@H](C)NC(=O)C3CCCCN3C(=O)C3CCCN3C2=O)cc1 (stereo partly drawn) [Compound 50, (S)-3-(3,5-Difluorophenyl)-N-((2S,6S,8aS,14aS,20S,23aS)-2-Fluoro-6-Methyl-5,8,14,19,23-Pentaoxooctadecahydro-1H,5H,14H,19H-Pyrido[2,1-I]Dipyrrolo[2,1-C:2′,1′-L][1]Oxa[4,7,10,13]Tetraazacyclohexadecin-20-Yl)-2-(3-(P-Tolyl)Ureido)Propanamide] | 0.9 ± 0.07 | 7.66 ± 0.2 |  | >200 | 0.8 (≈ 0.638 µg/mL) | 1.6 (≈ 1.28 µg/mL) | > 200 | 3.1 (≈ 2.47 µg/mL) |
| Cc1ccc(NC(=O)N[C@@H](Cc2cc(F)cc(F)c2)C(=O)N[C@H]2COC(=O)C3CC(C)(C)CN3C(=O)[C@H](C)NC(=O)C3CCCCN3C(=O)C3CCCN3C2=O)cc1 (stereo partly drawn) [Compound 49, (S)-3-(3,5-Difluorophenyl)-2-(3-(P-Tolyl)Ureido)-N-((6S,8aS,14aS,20S,23aS)-2,2,6-Trimethyl-5,8,14,19,23-Pentaoxooctadecahydro-1H,5H,14H,19H-Pyrido[2,1-I]Dipyrrolo[2,1-C:2′,1′-L][1]Oxa[4,7,10,13]Tetraazacyclohexadecin-20-Yl)Propanamide] | 2.3 ± 0.2 | 12.7 ± 0.2 |  | 100 | 6.3 (≈ 5.09 µg/mL) | 25 (≈ 20.2 µg/mL) | 0.4 (≈ 0.323 µg/mL) | 12.5 (≈ 10.1 µg/mL) |
